Assays:
Format in all cases: in vivo, rat
[1] = tested on: rats with chemotherapy-induced painful peripheral neuropathy (CIPN); test: Oxaliplatin-induced hyperalgesia (CIPN), mechanical nociceptive threshold after topical administration; settings: oxaliplatin 2 mg/kg i.v. day 0, day 14 topical morphine 0.1 μg/μl with protamine 2 μg/μl, 30 μL on dorsum of hind paw, 30 and 60 min, P<0.0001
Experimental: Female rats received oxaliplatin (2 mg/kg, i.v.) on day 0. On day 14, at which time oxaliplatin-induced hyperalgesia was established, morphine combined with protamine or protamine alone (dissolved in distillated water-dH20) or morphine (using saline as a vehicle), each in a volume of 30 μL, was administered topically on the dorsum of one hind paw, at the site of nociceptive threshold testing. Protamine was used at a concentration of 2 μg/μl and morphine was used at a concentration of 0.1 μg/μl. Mechanical nociceptive threshold was evaluated before and 14 days after oxaliplatin administration, and again 30 and 60 minutes after topical drug administration. […] Two-way repeated measures ANOVA, F(6.18)=26.85, P<0.0001. Bonferroni's multiple comparison post-hoc test. n=3 per group.
Male rats received oxaliplatin (2 mg/kg, i.v.) on day 0. On day 14, at which time oxaliplatin-induced hyperalgesia was established, morphine combined with protamine or protamine alone, each in a volume of 30 μL, was administered topically on the dorsum of one hind paw, at the site of nociceptive threshold testing. Protamine was used at a concentration of 2 μg/μl and morphine was used at a concentration of 0.1 μg/μl. Mechanical nociceptive threshold was evaluated before and 14 days after oxaliplatin administration, and again 30 and 60 minutes after topical administration. […]

[2] = tested on: PGE2 hyperalgesia in rats; test: PGE2-induced hyperalgesia, mechanical nociceptive threshold after topical administration; settings: male rats; PGE2 100 ng/5 μL i.d.; 10 min later topical morphine 0.1 μg/μl with protamine 2 μg/μl, 30 μL; 30 and 60 min; P=0.0366
Experimental: Male rats received PGE2 (100 ng/5 μL, intradermally, i.d.), on the dorsum of the hind paw followed, 10 minutes later, by morphine combined with protamine or protamine alone (dissolved in distillated water-dH20) or morphine (using saline as a vehicle), each in a volume of 30 μL, was administered topically on the dorsum of one hind paw, at the site of the i.d. PGE2 injection. Protamine was used at a concentration of 2 μg/μl and morphine was used at a concentration of 0.1 μg/μl. Mechanical nociceptive threshold was evaluated before intradermal PGE2 and again 30 and 60 min after topical administration. […] Two-way repeated measures ANOVA, F(2.8)=4.25, *P=0.0366. Bonferroni's multiple comparison post-hoc test. Data shown as mean±SEM; n=3 paws, per group.

[3] = tested on: carrageenan-induced hyperalgesia in rats; test: Carrageenan-induced hyperalgesia, mechanical nociceptive threshold after topical administration; settings: male rats; carrageenan i.d.; 30 min later topical indomethacin 1 μg/μl with protamine 2 μg/μl, 30 μL; P<0.0001
Experimental: Male rats were treated with carrageenan (0.1% in 1 μg/5 μL) intradermally (i.d.), into the dorsum of the hind paw. Thirty minutes after the carrageenan administration, when hyperalgesia was established, animals received indomethacin combined with protamine or protamine alone, each in a volume of 30 μL, topically on the dorsum of one hind paw, at the site of the i.d. injection. Protamine was used at a concentration of 2 μg/μl and indomethacin was used at a concentration of 1 μg/μl. Mechanical nociceptive threshold was evaluated before carrageenan administration, and again 30 and 90 minutes after. […] Two-way repeated measures ANOVA, F(2.14)=40.46, P<0.0001. Bonferroni's multiple comparison post-hoc test. Data shown as mean±SEM; n=3 paws, per group.

Row | SMILES | effect on oxaliplatin-induced hyperalgesia (mechanical nociceptive threshold) ([1]; female rats) | effect on oxaliplatin-induced hyperalgesia (mechanical nociceptive threshold) ([1]; male rats) | effect on PGE2-hyperalgesia (mechanical nociceptive threshold) [2] | effect on carrageenan-induced hyperalgesia (mechanical nociceptive threshold) [3]
1 | CN1CC[C@]23c4c5ccc(O)c4O[C@H]2[C@@H](O)C=C[C@H]3[C@H]1C5 [morphine] | attenuated oxaliplatin-induced hyperalgesia | attenuated oxaliplatin-induced hyperalgesia | significant attenuation of PGE2-hyperalgesia | –
2 | COc1ccc2c(c1)c(CC(=O)O)c(C)n2C(=O)c1ccc(Cl)cc1 [indomethacin] | – | – | – | attenuated carrageenan-induced hyperalgesia

Source: patent US20250017846A1, “TOPICAL ANALGESICS” (THE REGENTS OF THE UNIVERSITY OF CALIFORNIA, priority 2023, published 2025)
